Measured values published in PubChem BioAssay (NCI).
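Briefly, cells in 96-well plates were exposed to five compound concentrations for 48 h, and endpoints were estimated by linear interpolation. Here, GI50 denotes the concentration required for 50% inhibition of growth. At the TGI there is no net growth.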

What was measured:
Test in all cases: DTP human tumour cell line panel, 48 h
HOP-62 NSCLC = system: HOP-62 NSCLC
COLO 205 colon = system: COLO 205 colon
HCT-15 colon = system: HCT-15 colon
NCI-H23 lung = system: NCI-H23 lung
A549 NSCLC = system: A549 NSCLC
SNB-19 CNS = system: SNB-19 CNS
ACHN renal = system: ACHN renal
SK-MEL-2 melanoma = system: SK-MEL-2 melanoma
MALME-3M melanoma = system: MALME-3M melanoma
KM12 colon = system: KM12 colon
SNB-75 CNS = system: SNB-75 CNS
IGROV1 ovarian = system: IGROV1 ovarian
K-562 leukemia = system: K-562 leukemia
A498 renal = system: A498 renal
MCF7 breast = system: MCF7 breast
DU-145 prostate = system: DU-145 prostate
CCRF-CEM leukemia = system: CCRF-CEM leukemia
SW-620 colon = system: SW-620 colon
OVCAR-3 ovarian = system: OVCAR-3 ovarian
OVCAR-5 ovarian = system: OVCAR-5 ovarian
HT29 colon = system: HT29 colon
NCI-H522 lung = system: NCI-H522 lung
M14 melanoma = system: M14 melanoma
SF-539 CNS = system: SF-539 CNS
U251 CNS = system: U251 CNS
786-0 renal = system: 786-0 renal
MOLT-4 leukemia = system: MOLT-4 leukemia
CAKI-1 renal = system: CAKI-1 renal
NCI/ADR-RES ovarian = system: NCI/ADR-RES ovarian
SK-MEL-5 melanoma = system: SK-MEL-5 melanoma
SN12C renal = system: SN12C renal
UO-31 renal = system: UO-31 renal
SF-268 CNS = system: SF-268 CNS
SF-295 CNS = system: SF-295 CNS
SK-MEL-28 melanoma = system: SK-MEL-28 melanoma
MDA-MB-231 breast = system: MDA-MB-231 breast
SK-OV-3 ovarian = system: SK-OV-3 ovarian
LOX IMVI melanoma = system: LOX IMVI melanoma
NCI-H460 lung = system: NCI-H460 lung
RXF 393 renal = system: RXF 393 renal
HCC-2998 colon = system: HCC-2998 colon
BT-549 breast = system: BT-549 breast
T-47D breast = system: T-47D breast
UACC-257 melanoma = system: UACC-257 melanoma
NCI-H226 lung = system: NCI-H226 lung
SR leukemia = system: SR leukemia
HS 578T breast = system: HS 578T breast
PC-3 prostate = system: PC-3 prostate
OVCAR-4 ovarian = system: OVCAR-4 ovarian
RPMI-8226 leukemia = system: RPMI-8226 leukemia
HL-60(TB) leukemia = system: HL-60(TB) leukemia
TK-10 renal = system: TK-10 renal
UACC-62 melanoma = system: UACC-62 melanoma
MDA-MB-435 = system: MDA-MB-435
HCT-116 colon = system: HCT-116 colon

C/C(=N\Nc1cc(C)c2cc(C)ccc2n1)c1ccccn1
GI50 (HOP-62 NSCLC): 55 nM | TGI (HOP-62 NSCLC): 1410 nM | GI50 (COLO 205 colon): < 20.1 nM | TGI (COLO 205 colon): 1170 nM | TGI (HCT-15 colon): 1930 nM | GI50 (NCI-H23 lung): 139 nM | TGI (NCI-H23 lung): 10200 nM | GI50 (A549 NSCLC): < 49 nM | TGI (A549 NSCLC): 1140 nM | GI50 (SNB-19 CNS): 145 nM | TGI (SNB-19 CNS): 13700 nM | GI50 (ACHN renal): < 42.4 nM | TGI (ACHN renal): 1140 nM | GI50 (SK-MEL-2 melanoma): 70.6 nM | TGI (SK-MEL-2 melanoma): 10800 nM | GI50 (MALME-3M melanoma): 123 nM | TGI (MALME-3M melanoma): 1270 nM | GI50 (KM12 colon): 77.2 nM | TGI (KM12 colon): 1790 nM | GI50 (SNB-75 CNS): 205 nM | TGI (SNB-75 CNS): 2180 nM | TGI (IGROV1 ovarian): 425 nM | GI50 (K-562 leukemia): 95 nM | TGI (K-562 leukemia): 1430 nM | GI50 (A498 renal): 134 nM | TGI (A498 renal): 3680 nM | GI50 (MCF7 breast): 86.6 nM | TGI (MCF7 breast): 1160 nM | GI50 (DU-145 prostate): 73.7 nM | TGI (DU-145 prostate): 4800 nM | GI50 (CCRF-CEM leukemia): < 27.6 nM | TGI (CCRF-CEM leukemia): 356 nM | TGI (SW-620 colon): 1980 nM | GI50 (OVCAR-3 ovarian): < 20.6 nM | TGI (OVCAR-3 ovarian): 1310 nM | TGI (OVCAR-5 ovarian): 2080 nM | GI50 (HT29 colon): < 40.7 nM | TGI (HT29 colon): 1650 nM | GI50 (NCI-H522 lung): < 47.2 nM | TGI (NCI-H522 lung): 124 nM | GI50 (M14 melanoma): 68.4 nM | TGI (M14 melanoma): 1320 nM | GI50 (SF-539 CNS): 57.3 nM | TGI (SF-539 CNS): 263 nM | GI50 (U251 CNS): < 39.3 nM | TGI (U251 CNS): 1160 nM | GI50 (786-0 renal): 105 nM | TGI (786-0 renal): 1270 nM | TGI (MOLT-4 leukemia): 361 nM | TGI (CAKI-1 renal): 261 nM | GI50 (NCI/ADR-RES ovarian): 66.6 nM | TGI (NCI/ADR-RES ovarian): 3850 nM | GI50 (SK-MEL-5 melanoma): 82.7 nM | TGI (SK-MEL-5 melanoma): 1270 nM | GI50 (SN12C renal): 60.7 nM | TGI (SN12C renal): 4120 nM | GI50 (UO-31 renal): < 44.7 nM | TGI (UO-31 renal): 322 nM | GI50 (SF-268 CNS): 47 nM | TGI (SF-268 CNS): 1620 nM | TGI (SF-295 CNS): 278 nM | GI50 (SK-MEL-28 melanoma): 135 nM | TGI (SK-MEL-28 melanoma): 1770 nM | GI50 (MDA-MB-231 breast): < 30.3 nM | TGI (MDA-MB-231 breast): 1540 nM | GI50 (SK-OV-3 ovarian): 74.3 nM | TGI (SK-OV-3 ovarian): 7210 nM | GI50 (LOX IMVI melanoma): 74.4 nM | TGI (LOX IMVI melanoma): 1230 nM | GI50 (NCI-H460 lung): 187 nM | TGI (NCI-H460 lung): 1220 nM | GI50 (RXF 393 renal): 113 nM | TGI (RXF 393 renal): 1530 nM | GI50 (HCC-2998 colon): < 50.1 nM | TGI (HCC-2998 colon): 1470 nM | GI50 (BT-549 breast): 276 nM | TGI (BT-549 breast): 17200 nM | GI50 (T-47D breast): < 46.4 nM | TGI (T-47D breast): 1460 nM | GI50 (UACC-257 melanoma): 81.8 nM | TGI (UACC-257 melanoma): 312 nM | GI50 (NCI-H226 lung): 36.6 nM | TGI (NCI-H226 lung): 1050 nM | GI50 (SR leukemia): < 31 nM | TGI (SR leukemia): 491 nM | GI50 (HS 578T breast): 1160 nM | TGI (HS 578T breast): 6870 nM | TGI (PC-3 prostate): 2320 nM | GI50 (OVCAR-4 ovarian): 30.3 nM | TGI (OVCAR-4 ovarian): 367 nM | GI50 (RPMI-8226 leukemia): 79 nM | TGI (RPMI-8226 leukemia): 1960 nM | GI50 (HL-60(TB) leukemia): < 43.1 nM | TGI (HL-60(TB) leukemia): 129 nM | TGI (TK-10 renal): 2820 nM | GI50 (UACC-62 melanoma): 79.4 nM | TGI (UACC-62 melanoma): 375 nM | GI50 (MDA-MB-435): 145 nM | TGI (MDA-MB-435): 1790 nM | GI50 (HCT-116 colon): < 49.7 nM | TGI (HCT-116 colon): 1360 nM
